Experimental data published in US20170029841A1, “METHODS AND COMPOSITIONS FOR SELECTIVE REGULATION OF PROTEIN EXPRESSION” (priority 2015, published 2017).

System: maize tissue pools (tassel, ear, leaf, root, stem)
Assay: siRNA profiling microarray assay of mts-siRNA sequences across maize tissues
Details: for 01DKD2 V8-V9 Tassel relative signal value: germplasm 01DKD2, V8-V9 tassel; for 01DKD2 V10-V12 Tassel relative signal value: germplasm 01DKD2, V10-V12 tassel; for 01DKD2 Other Tissue relative signal value: germplasm 01DKD2, combined signals from other tissue; for LH244 V8-V9 Tassel relative signal value: germplasm LH244, V8-V9 tassel; for LH244 V10-V12 Tassel relative signal value: germplasm LH244, V10-V12 tassel; for LH244 Other Tissue relative signal value: germplasm LH244, combined signals from other tissue
Method: A siRNA profiling microarray assay was performed using μParaflo® Microfluidics chips provided by LC Sciences LLC (Houston, Tex., USA) with 1,200 sequences selected from the thousands of mts-siRNA sequences identified from the differential bioinformatic analysis. The microarray chips contained triplicate probes of the complementary sequence for each of the 1,200 mts-siRNA sequences. Total RNA was purified from 26 maize tissue pools (duplicate or triplicate tissue pools) from either LH244 (ATCC deposit number PTA-1173) or 01DKD2 (I294213) (ATCC deposit number PTA-7859) inbred plants. Each of the 26 RNA samples were hybridized with the microarray chips that contain probes for the 1,200 mts-siRNA. Hybridization images were collected using a GenePix® 4000B laser scanner (Molecular Devices, Sunnyvale, Calif.) and digitized using Array-Pro® Analyzer image analysis software (Media Cybernetics, Rockville, Md.). Relative signal values were derived by background subtraction and normalization. Differentially expressed signals were determined by t-test with p<0.05. From the microarray analysis, about 500 mts-siRNA from the 1,200 were identified as being highly tassel-specific.
Selected mts-siRNA sequences aligning to one of the six cDNA sequences were used for further microarray analysis to determine differential expression across maize tissues. Microarray analysis for mts-siRNA sequences of normalized signal values for V8-V9 tassel, V10-V12 tassel, or combined signals from the other tissue for maize germplasm LH244 and 01DKD2 is presented in Tables 3-10. […] Signal value results are measured as relative signal values and standard error (p<0.05) is represented by (STDR). […] The mts-siRNA sequence corresponds to the sense or antisense strand of the corresponding mts-siRNA target sequence in the cDNA sequence. The mts-siRNA sequence may have a single nucleotide, a two nucleotide, or a three nucleotide mismatch with the aligned portion of the cDNA sequence, and the mts-siRNA sequence may align to the sense strand or antisense strand of the cDNA sequence. The mts-siRNA sequences provided here are found across different maize germplasms.

| Substance | 01DKD2 V8-V9 Tassel relative signal value | 01DKD2 V10-V12 Tassel relative signal value | 01DKD2 Other Tissue relative signal value | LH244 V8-V9 Tassel relative signal value | LH244 V10-V12 Tassel relative signal value | LH244 Other Tissue relative signal value |
| --- | --- | --- | --- | --- | --- | --- |
| SEQ ID NO: 59: mts-siRNA sequence aligning to cDNA SEQ ID NO: 20 (ATGCCAAAGGTACCGATGTTAG; expressed or natural sequence) | 202 | 811.5 | 0.3 | 789 | 1262.7 | 4.1 |
| SEQ ID NO: 60: mts-siRNA sequence aligning to cDNA SEQ ID NO: 20 (CGTCGTGCAGCTGGTCACCGGT; expressed or natural sequence) | 75.5 | 303 | 9.3 | 141.5 | 265.7 | 5.8 |
| SEQ ID NO: 61: mts-siRNA sequence aligning to cDNA SEQ ID NO: 21 (CTGTGATGTAGAAGCCCAGAC; expressed or natural sequence) | 461 | 454 | 8 | 850.5 | 334.7 | 9.4 |
| SEQ ID NO: 62: mts-siRNA sequence aligning to cDNA SEQ ID NO: 21 (CAAATGAGTCATCGAAGCTGT; expressed or natural sequence) | 13.5 | 15.5 | 1 | 44.5 | 11.3 | 1.8 |
| SEQ ID NO: 63: mts-siRNA sequence aligning to cDNA SEQ ID NO: 21 (TAGATCACTCGGGTCGCCACA; expressed or natural sequence) | 14.5 | 18 | 1.5 | 34.5 | 11.7 | 3.2 |
| SEQ ID NO: 64: mts-siRNA sequence aligning to cDNA SEQ ID NO: 21 (GCATATATGTGATGAAGACCG; expressed or natural sequence) | 13.5 | 9 | 1.3 | 23 | 13.7 | 1.8 |
| SEQ ID NO: 65: mts-siRNA sequence aligning to cDNA SEQ ID NO: 21 (CGAATTGATTCCACCCATTCC; expressed or natural sequence) | 444.5 | 454.5 | 12 | 811.5 | 260.3 | 5.8 |
| SEQ ID NO: 66: mts-siRNA sequence aligning to cDNA SEQ ID NO: 21 (TGGTCATACACTAGATAGGGC; expressed or natural sequence) | 61 | 55.5 | 2.8 | 199.5 | 48 | 1.9 |
| SEQ ID NO: 67: mts-siRNA sequence aligning to cDNA SEQ ID NO: 21 (CCTATCTAGTGTATGACCAAT; expressed or natural sequence) | 123.5 | 107 | 4.3 | 216 | 62 | 3.3 |
| SEQ ID NO: 68: mts-siRNA sequence aligning to cDNA SEQ ID NO: 21 (GAACAGTGATTTTATGAGCAA; expressed or natural sequence) | 98 | 96 | 2.5 | 265 | 85.3 | 5 |
| SEQ ID NO: 69: mts-siRNA sequence aligning to cDNA SEQ ID NO: 21 (GCTCATAAAATCACTGTTCAT; expressed or natural sequence) | 309.5 | 282.5 | 9.8 | 516 | 185 | 11.2 |
| SEQ ID NO: 70: mts-siRNA sequence aligning to cDNA SEQ ID NO: 22 (CATGCACTGGTGAGTCACTGTTG; expressed or natural sequence) | 3 | 873 | 4 | 56.5 | 694 | 1.8 |
| SEQ ID NO: 71: mts-siRNA sequence aligning to cDNA SEQ ID NO: 22 (AGCTATCGATTCCCTAAGTGCCA; expressed or natural sequence) | 46 | 1943.5 | 2.3 | 1125.5 | 2380 | 1.6 |
| SEQ ID NO: 72: mts-siRNA sequence aligning to cDNA SEQ ID NO: 22 (GGCCTCCCTTCCCTATGGTAGCC; expressed or natural sequence) | 332.5 | 530 | 233.3 | 323.5 | 325.7 | 1324.8 |
| SEQ ID NO: 73: mts-siRNA sequence aligning to cDNA SEQ ID NO: 22 (AAGCTATCGATTCCCTAAGTGCCA; expressed or natural sequence) | 37.5 | 1695.5 | 2 | 1058.5 | 2395.7 | 4.5 |
| SEQ ID NO: 74: mts-siRNA sequence aligning to cDNA SEQ ID NO: 22 (AGGCCTCCCTTCCCTATG; expressed or natural sequence) | 43.5 | 171 | 45.8 | 83.5 | 129 | 164.2 |
| SEQ ID NO: 75: mts-siRNA sequence aligning to cDNA SEQ ID NO: 22 (ACAGTGACTCACCAGTGCATGCAC; expressed or natural sequence) | 3 | 257 | 5 | 53 | 237.3 | 3.3 |
| SEQ ID NO: 76: mts-siRNA sequence aligning to cDNA SEQ ID NO: 22 (ACAGTGACTCACCAGTGCATG; expressed or natural sequence) | 2.5 | 276.5 | 4 | 55 | 252.3 | 5.7 |
| SEQ ID NO: 77: mts-siRNA sequence aligning to cDNA SEQ ID NO: 22 (AAGGCAAGAAGGTGCTTGTTGTC; expressed or natural sequence) | 0.5 | 225 | 2.5 | 180.5 | 302.7 | 4.1 |
| SEQ ID NO: 78: mts-siRNA sequence aligning to cDNA SEQ ID NO: 22 (GCATGCACTGGTGAGTCACTGTTG; expressed or natural sequence) | 3 | 715.5 | 4.5 | 47.5 | 642.7 | 1 |
